Columns and labels:
p70S6 kinase (T389) = assay: Western blot of colonic p70S6K phosphorylation in C. jejuni infected mice; assay type: in vivo; settings: AS252424 10 mg/kg i.p. daily, 6 days
Description: Whole tissues were lysed in Laemmli buffer and 20 μg of protein was separated by SDS-PAGE, transferred to nitrocellulose membranes and protein detected using enhanced chemiluminescence reaction (ECL) as described previously. (Lippert et al., 2009). Primary antibodies used were phospho-p70S6K (T389) and p70S6K (Cell Signaling, Danvers, Mass., United States of America), EGFP (Sigma, St. Louis, Mo., United States of America), LC3 I/II (MBL) and Actin.
(§1) A segment of the distal colon was lysed in 300 μl Laemmli buffer, homogenized and heated at 95° C. for 5 min. 20 μg of total protein were separated by SDS-PAGE and transferred to nitrocellulose membranes. Targeted protein was detected using enhanced chemiluminescence reaction (ECL) as described previously (Muhlbauer et al., 2008). Primary antibodies used were phosphor-AKT (S473), phosphor-p70S6K (T389), total AKT (all from Cell Signaling, Danvers, Mass., United States of America) and EGFP (Sigma, St. Louis, Mo., United States of America). The density of Western blot bands was quantified using ImageJ and data were normalized to total AKT control.

AKT (S473) = assay: Western blot of AKT phosphorylation in colonic lysates of C. jejuni infected mice; assay type: in vivo; settings: AS252424 10 mg/kg i.p. daily, 6 days
Description: as §1

neutrophils (MPO) = assay: Myeloperoxidase (MPO) immunohistochemistry of colon, neutrophil infiltration; assay type: in vivo, mice; settings: in the presence of AS252424
Description: Deparaffinized colon sections were treated with 3% H2O2 for 10 minutes to quench endogenous peroxidases. Antigen retrieval was performed using microwave heating for 10 min in 10 mM citrate buffer pH 6.0. Sections were blocked in 5% goat serum TBS-T for 1 hour. The slides were incubated overnight at 4° C. with an anti-MPO antibody (1:400) (Thermo Scientific, Hampton, N.H., United States of America). Secondary biotinylated antibody was diluted at 1:1000 with the VECTASTAIN® ABC Elite Kit (Vector Laboratories, Inc., Burlingame, Calif., United States of America). Visualization was performed using DAB chromogen (Dako, Inc., Carpinteria, Calif., United States of America). Finally, sections were counterstained with hematoxylin for 5 seconds. Sections were imaged at the OLYMPUS® microscope using DP 71 camera and DP Controller 3.1.1.276 (Olympus, Center Valley, Pa., United States of America).
Neutrophils in intestinal tissue were detected using anti-myeloperoxidase (MPO) IHC as described previously (Sun et al., 2012). Briefly, intestinal tissue sections were deparaffinized, blocked and incubated with an anti-MPO antibody (1:400; Thermo Scientific, Hampton, N.H., United States of America) overnight. […]

C. jejuni = assay type: in vivo, mice
Description: All animal protocols were approved by the Institutional Animal Care and Use Committee of the University of North Carolina at Chapel Hill (Chapel Hill, N.C., United States of America). Germ-free 8 to 12 week old II10^−/−; NF-κBEGFP (129/SvEv; C57BL/6 mixed background) mice were transferred from germ-free isolators and immediately gavaged with 10^9 C. jejuni cfu/mouse (strain 81-176 (Korlath et al., 1985)). Mice were then housed under Specific Pathogen-Free (SPF) conditions and sacrificed at 5 or 12 days. Germ-free II10^−/−; NF-κB^EGFP mice were also gavaged with 10^7 Salmonella typhimurium (S. typhimurium strain CA32) cfu/mouse for 2 days or 10^7 Escherichia coli (E. coli strain NC 101) cfu/mouse for 12 days. Conventionally-derived II10^−/−; NF-κB^EGFP mice were put on an antibiotic cocktail (streptomycin 2 g/L, gentamycin 0.5 g/L, bacteriocin 1 g/L and ciprofloxacin 0.125 g/L) in water for 7 days and antibiotics withdrawn 24 hours prior to infection. The mice were then gavaged with 10^9 C. jejuni cfu/mouse for 14 days. To inhibit mTOR signaling, mice were injected daily intraperitoneally (i.p.) with rapamycin (1.5 mg/kg) (Fisher Scientific, Hampton, N.H., United States of America). At the end of the experiment, mice were euthanized using CO2 intoxication. Colon, mesenteric lymph nodes (MLN) and spleen were collected for further processing RNA, protein or C. jejuni culture on Campylobacter selective blood plates (Remel, Thermo Scientific, Hampton, N.H., United States of America) for 48 h at 37° C. using the GasPak system (Becton Dickinson, Franklin Lakes, N.J., United States of America). […] Colons were fixed in 10% buffered formalin (Fisher Scientific, Hampton, N.H., United States of America) overnight, paraffin-embedded, sectioned, and stained with H&E for histological evaluation. Images were acquired using a DP71 camera and DP Controller 3.1.1.276 (Olympus, Center Valley, Pa., United States of America). Intestinal inflammation was scored by evaluating the degree of lamina propria immune cell infiltration, goblet cell depletion, architectural distortion, as well as crypt hyperplasia, ulceration, and abscesses using a score from 0-4. (Lippert et al., 2009). Cecal and colonic inflammation induced by S. typhimurium was evaluated using a score from 0-13 as described. (Hapfelmeier et al., 2005).
MLN and spleen were aseptically resected. Colon tissue was opened, resected and washed three times in sterile PBS. […] C. jejuni colonies were counted and data presented as colony forming unit (cfu)/g tissue.

O=C1NC(=O)/C(=C/c2ccc(-c3ccc(F)cc3O)o2)S1 [AS252424]
attenuation of p70S6K phosphorylation (T389) in colonic extracts (p70S6 kinase (T389)): 34% | AKT phosphorylation (S473) in colonic extracts (AKT (S473)): modest reduction | C. jejuni-induced neutrophil infiltration into colonic tissues (MPO staining) (neutrophils (MPO)): strongly reduced | levels of viable C. jejuni in the spleen (C. jejuni; AS252424 vs infected vehicle-treated mice): strongly reduced | decrease of viable C. jejuni in MLN (C. jejuni; mouse, in vivo): 90% | decrease of viable C. jejuni in colon (C. jejuni; mouse, in vivo): 97%
